Calls of active or inactive are those of the source.

The text below walks through data of ChEMBL document CHEMBL1201862, “PubChem BioAssay data set” (2004).

Chain of Cytochrome P450 2C19 (P33261 whole entry): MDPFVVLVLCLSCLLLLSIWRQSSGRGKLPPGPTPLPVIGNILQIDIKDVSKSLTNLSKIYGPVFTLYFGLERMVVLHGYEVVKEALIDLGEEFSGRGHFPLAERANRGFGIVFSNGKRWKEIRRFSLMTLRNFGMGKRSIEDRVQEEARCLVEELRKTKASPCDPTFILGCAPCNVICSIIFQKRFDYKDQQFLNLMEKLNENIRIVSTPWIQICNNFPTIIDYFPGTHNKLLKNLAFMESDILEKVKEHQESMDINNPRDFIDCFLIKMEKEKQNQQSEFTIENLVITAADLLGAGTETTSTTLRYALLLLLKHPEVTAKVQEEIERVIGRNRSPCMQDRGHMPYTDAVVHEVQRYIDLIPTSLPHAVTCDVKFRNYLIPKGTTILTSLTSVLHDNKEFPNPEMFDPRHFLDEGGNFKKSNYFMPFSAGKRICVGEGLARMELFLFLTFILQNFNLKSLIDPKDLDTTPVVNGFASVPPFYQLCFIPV

The subject of one assay is Streptococcus sp. 'group A'. The experiment in a line: growth inhibition of control SK(-) GAS strain, dose response, counter-screen for streptokinase expression inhibitor project, luminescence, kanamycin, BacTiterGlo, confirmation (AID 1900). The assay is classed as functional, organism-based.
Details: not given
Usually EC50 stands for the midpoint of the concentration-response curve. As for `Cc1ccc(C)c(-c2csc(N)c2C(=O)OC(C)C)c1`, the 50% effective concentration (EC50) is 9.04 µM (active).

Tested on in a further assay: not listed separately
The experiment in a line: Luminescence Cell-Based Dose Retest to Confirm Inhibitors of Cancer Stem Cells. [Related pubchem assays (depositor defined):AID2717, AID2721]. The assay is classed as functional. Particulars: Homo sapiens.
In general, AC50 refers to the concentration at which the activity in the assay is half-maximal. Consider `CC(C)(C)c1ccc(Cn2nnc3c(O)nc(C4CCCN(C(=O)c5cccs5)C4)nc32)cc1` (configuration not stated), for which the AC50 is 10.6 µM (active). On the same count and under the same terms, as for `COC(=O)c1c(NC(=O)c2ccc(C)c(S(=O)(=O)Nc3ccccc3C)c2)sc2c1CCCC2`, the figure is 0.875 µM (active); as for `FC(F)(F)c1cc(-c2ccc(Cl)cc2)nc(NCc2cccnc2)n1`, 7.33 µM (active). Regarding `O=c1c(Cl)c(NCc2ccccc2)cnn1C12CC3CC(CC(C3)C1)C2`, the concentration at half-maximal activity (AC50) is 1.16 µM (active). The same measure, in the same setting: as for `Cc1ccc(C)c(-c2csc(N)c2C(=O)OC(C)C)c1`, the figure is 6.66 µM (active). Same read-out and setting: as for `COCCNC(=O)CN(C(=O)CCC(=O)Nc1ccccn1)c1ccc(C)cc1`, the figure is > 195 µM (inactive). `O=S(=O)(Nc1ccc(-c2nnc(SCc3ccc(Cl)cc3)o2)cc1)c1ccccc1`: the AC50 is 3.31 µM (active).

With `CCCOc1ccc(/C=N/Nc2cccc([N+](=O)[O-])c2)c(O)c1`, the AC50 was 1.76 µM (active).

Another assay concerns H4. Put plainly: Luminescence Cell-Based Dose Response HTS to Identify Activators of 5'UTR Stem-Loop Driven Prion Protein mRNA Translation in H4 Neuroglioblastoma Cells. [Related pubchem assays: 1829 (Project Summary), 1814 (Primary HTS)]. The assay is classed as functional. The note with it: Homo sapiens.
Consider `CC(=O)c1c(C)[nH]c(C(=O)Nc2nccs2)c1C`, for which the EC50 is > 120 µM (not active). The same measure, in the same setting: as for `CCOc1c2ccc(C(=O)NCCc3cccs3)cc2nn1CC`, the figure is > 120 µM (not active).

As to `O=c1n(-c2ccc(Br)cc2)cnn1-c1ncccc1[N+](=O)[O-]`, the EC50 was 17.3 µM (active). The same measure, in the same setting: the value for `c1ccc(N2CCN(c3nc4cc5c(cc4s3)OCCO5)CC2)cc1` was 46 µM (inconclusive); that for `O=C(Nc1ccccc1)Nc1ccc(-n2ccc(C(F)(F)F)n2)cc1` was > 120 µM (not active).

The subject of the next assay is Streptococcus. The experiment in a line: Group A Streptococcus viability loss, dose response, counter-screen for streptokinase expression inhibitor project, luminescence, BacTiterGlo (AID 1915).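 Also: potency for reduction of bacterial viability or growth.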 The assay is classed as functional, organism-based.
Details: not given
For orientation: The purpose of a counterscreen is to sort out artefacts and off-target activity.
With `Cc1ccc(C)c(-c2csc(N)c2C(=O)OC(C)C)c1`, the concentration for a half-maximal effect (EC50) is reported as > 150 µM (not active).

Tested on in another assay: not listed separately
Put plainly: cytotoxicity toward NIH3T3 fibroblasts, dose response, counter-screen, cell-based, ATP luminescence, mouse fibroblasts (AID 2010).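 Also: cells exposed to compound for about 90 hours before reading.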 The assay is classed as functional.
Details: not given
`FC(F)(F)c1cc(-c2ccc(Cl)cc2)nc(NCc2cccnc2)n1`: the EC50 is reported as > 60 µM (not active).

The next assay addresses T1, Cytochrome P450 1A2 (Homo sapiens, UniProt P05177).
T1 sequence (P05177 whole entry): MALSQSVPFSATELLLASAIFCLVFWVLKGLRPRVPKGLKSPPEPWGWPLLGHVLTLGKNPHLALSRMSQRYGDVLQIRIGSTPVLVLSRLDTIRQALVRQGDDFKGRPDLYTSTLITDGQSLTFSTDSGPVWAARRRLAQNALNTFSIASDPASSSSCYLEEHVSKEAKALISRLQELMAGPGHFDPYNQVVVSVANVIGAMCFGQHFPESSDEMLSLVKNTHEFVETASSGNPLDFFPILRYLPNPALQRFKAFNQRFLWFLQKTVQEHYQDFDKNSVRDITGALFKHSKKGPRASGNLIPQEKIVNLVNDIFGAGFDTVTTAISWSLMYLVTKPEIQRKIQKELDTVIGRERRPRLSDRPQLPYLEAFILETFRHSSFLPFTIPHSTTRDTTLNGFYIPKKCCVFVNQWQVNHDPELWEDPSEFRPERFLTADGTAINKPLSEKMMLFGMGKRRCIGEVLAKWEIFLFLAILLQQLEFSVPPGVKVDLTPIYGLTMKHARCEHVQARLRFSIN
Details: not given
For `C[C@](N)(COP(=O)(O)O)C(=O)O`, the half-maximal activity concentration (AC50) was 31.6 µM (inconclusive).

Take `COc1cc(O)c2c(O)c3c(c4c2c1[C@@]1(C4)C(C)=CCCC1(C)C)[C@H](O)[C@@]1(O)CC(O)=C(C(N)=O)C(=O)[C@]1(O)C3=O`: the half-maximal activity concentration (AC50) was 3.16 µM (inconclusive).

As to `CN1CCc2ccccc2[C@@H]1Cc1ccccc1NC(=O)c1sc2ccccc2c1Cl`, the AC50 was 5.01 µM (inconclusive).

Tested on in a further assay: not listed separately
Put plainly: Luminescence Cell-Based Dose Response HTS to Identify Activators of Luciferase Translation or Activity in H4 […] Cells. [Related pubchem assays: 1829 (Project Summary), 1814 (Primary HTS)]. The assay is classed as functional.
Details: not given
As to `CC(=O)c1c(C)[nH]c(C(=O)Nc2nccs2)c1C`, the concentration for a half-maximal effect (EC50) is reported as > 120 µM (not active).

Consider `CCOc1c2ccc(C(=O)NCCc3cccs3)cc2nn1CC`, for which the concentration for a half-maximal effect (EC50) is 1.51 µM (active).

As to `O=c1n(-c2ccc(Br)cc2)cnn1-c1ncccc1[N+](=O)[O-]`, the EC50 is 2.9 µM (active). Still for that read-out and setting: as for `O=C(Nc1ccccc1)Nc1ccc(-n2ccc(C(F)(F)F)n2)cc1`, the figure is 0.648 µM (active).

The next assay has as its target T2, Streptokinase A (Streptococcus pyogenes serotype M1, UniProt P10520).
T2 sequence (P10520 whole entry): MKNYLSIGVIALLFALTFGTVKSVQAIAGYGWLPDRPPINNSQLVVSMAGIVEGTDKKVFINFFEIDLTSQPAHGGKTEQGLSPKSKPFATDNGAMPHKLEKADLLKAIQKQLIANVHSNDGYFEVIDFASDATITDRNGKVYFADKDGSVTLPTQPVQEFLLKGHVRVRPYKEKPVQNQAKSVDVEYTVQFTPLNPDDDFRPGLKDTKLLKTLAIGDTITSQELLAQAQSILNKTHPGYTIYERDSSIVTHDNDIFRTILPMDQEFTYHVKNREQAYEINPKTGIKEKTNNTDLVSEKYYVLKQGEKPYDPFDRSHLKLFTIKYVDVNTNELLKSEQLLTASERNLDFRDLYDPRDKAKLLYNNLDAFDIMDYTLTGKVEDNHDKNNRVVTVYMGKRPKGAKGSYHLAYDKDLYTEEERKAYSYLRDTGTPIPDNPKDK
Put plainly: S. pyogenes streptokinase expression inhibitors, potency, dose response, plasminogen activation absorbance, OD405 (AID 1914).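 Also: secreted streptokinase activity via plasminogen activation per viability signal from cell pellet.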 The assay is classed as functional, Streptococcus pyogenes M1 GAS.
Details: not given
Regarding `Cc1ccc(C)c(-c2csc(N)c2C(=O)OC(C)C)c1`, the half-maximal effective concentration (EC50) is 17 µM (active).

Tested on in a further assay: not listed separately
Put plainly: inhibitors of intracellular T. cruzi replication, confirmation, NIH3T3 host cells, beta-gal luminescence (AID 2044).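 Also: intracellular parasites grown in NIH/3T3 mouse fibroblasts as host cells; luminescent beta-galactosidase reporter signal from transgenic T. cruzi replicating inside host cells; inhibitors lower the luminescence signal.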 The assay is classed as functional, cell-based.
Details: not given
As to `FC(F)(F)c1cc(-c2ccc(Cl)cc2)nc(NCc2cccnc2)n1`, the 50% effective concentration (EC50) is 1.01 µM (active).

The next assay concerns the target Cytochrome P450 2C19 (Homo sapiens, UniProt P33261). Put plainly: Cytochrome panel assay with activity outcomes. Panel member name: p450-cyp2c19 Compounds with AC50 equal or less than 10 uM are considered active. The assay is classed as functional. Particulars: read-out: AC50.
Regarding `C[C@](N)(COP(=O)(O)O)C(=O)O`, the AC50 was 25.1 µM (inconclusive). The same measure, in the same setting: as for `O=C1NCCN1Cc1cccc(Cl)c1`, the figure is 2.24 µM (inconclusive); as for `CCOc1c2ccc(C(=O)NCCc3cccs3)cc2nn1CC`, 4.47 µM (inconclusive). In the case of `CN(C)C(=O)c1ccc(-c2nc(Nc3ccncc3)c3ccccc3n2)cc1`, the half-maximal activity concentration (AC50) is 39.8 µM (inconclusive). On the same count and under the same terms, as for `COc1ccc(-n2c(=O)c(-c3cc(F)cc(F)c3)nc3cncnc32)cc1`, the figure is 10 µM (inconclusive).

The target of the next assay is Cytochrome P450 2C9 (Homo sapiens, UniProt P11712).
Chain of Cytochrome P450 2C9 (P11712 whole entry): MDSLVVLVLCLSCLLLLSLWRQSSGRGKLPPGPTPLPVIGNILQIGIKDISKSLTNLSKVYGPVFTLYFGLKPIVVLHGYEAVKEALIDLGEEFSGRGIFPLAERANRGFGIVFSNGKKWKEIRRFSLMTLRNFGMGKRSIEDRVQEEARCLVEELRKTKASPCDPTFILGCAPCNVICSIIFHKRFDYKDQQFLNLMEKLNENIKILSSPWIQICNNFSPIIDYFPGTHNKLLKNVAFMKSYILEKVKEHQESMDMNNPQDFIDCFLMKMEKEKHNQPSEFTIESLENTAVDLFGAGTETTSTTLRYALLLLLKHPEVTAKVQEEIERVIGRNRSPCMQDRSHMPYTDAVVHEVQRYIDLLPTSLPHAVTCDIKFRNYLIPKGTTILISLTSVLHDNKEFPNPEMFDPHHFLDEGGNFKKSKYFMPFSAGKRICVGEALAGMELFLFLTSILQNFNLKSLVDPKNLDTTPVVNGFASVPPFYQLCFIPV
Details: not given
For `COc1ccc(NC(=O)N2CCCC3(CCN(C(=O)Oc4ccccc4)CC3)C2)cc1`, the concentration at half-maximal activity (AC50) was 1.58 µM (inconclusive).

`COc1cc(O)c2c(O)c3c(c4c2c1[C@@]1(C4)C(C)=CCCC1(C)C)[C@H](O)[C@@]1(O)CC(O)=C(C(N)=O)C(=O)[C@]1(O)C3=O`: the half-maximal activity concentration (AC50) is 3.16 µM (inconclusive).

Consider `O=C1NCCN1Cc1cccc(Cl)c1`, for which the AC50 was 2.24 µM (inconclusive). As for `COc1ccc(-n2c(=O)c(C)nc3cncnc32)cc1`, the concentration at half-maximal activity (AC50) was 39.8 µM (inconclusive). For the compound `CCOc1c2ccc(C(=O)NCCc3cccs3)cc2nn1CC`, the AC50 is 28.2 µM (inconclusive). Same read-out and setting: as for `CCn1ccc(C(=O)NC2=C(C#N)CCC2)n1`, the figure is 14.1 µM (inconclusive).

Take `CCOC(=O)C1(S(=O)(=O)c2ccccc2)CCN(Cc2ccccc2)CC1`: the half-maximal activity concentration (AC50) was 11.2 µM (inconclusive). Still for that read-out and setting: as for `Cc1cccc(-c2nnc(SCc3ccccc3)o2)c1`, the figure is 39.8 µM (inconclusive); as for `CN1CCc2ccccc2[C@@H]1Cc1ccccc1NC(=O)c1sc2ccccc2c1Cl`, 3.16 µM (inconclusive). The same measure, in the same setting: as for `COC(=O)[C@@H]1C[C@H]1[C@@H](NC(=O)c1ccccc1)c1ccccc1`, the figure is 39.8 µM (inconclusive).

As to `CCOC(=O)C1=C(O)C(Nc2nccs2)(C(F)(F)F)N=C1C` (configuration not stated), the AC50 is 35.5 µM (inconclusive).

As for `CC(=O)c1ccc(-n2nnnc2SCC(=O)Nc2cccc(NC(=O)c3ccco3)c2)cc1`, the AC50 was 7.08 µM (inconclusive).
